Literature values as cited in patent US11285148B1 (King Abdulaziz University, priority 2021, dated 2022).

Tested on: yeast isolates obtained from cases of keratitis

**Q.** For `CC(=O)N1CCN(c2ccc(OCC3COC(Cn4ccnc4)(c4ccc(Cl)cc4Cl)O3)cc2)CC1` (stereo not shown) [KET, Ketoconazole], which Minimum inhibitory concentration is on record?
**A.** The Minimum inhibitory concentration was 0.015 to 0.125 µg/mL.
